Key:
[1] = system: mMB-SLCs; test: Western Blot of H3K27me3, PCNA, cleaved caspase 3 in mMB-SLCs; assay type: cell-based, mouse; conditions: mMB-SLCs, 5 μM, 48 h
Description: Afterwards, we tested the ability of MC3629 (at 0.5, 5, and 25 μM) to inhibit the EZH2 enzymatic activity on a cell-based assay in vitro. The lower significant MC3629 dosage to decrease the H3K27me3 level in MB-SLCs was 5 μM (Figure 2C).
(§1) To evaluate cell viability cells were plated at a density of 5×10^3 cells/well in 96-well plates and were incubated with MTS solution (CellTiter 96® AQueous One Solution Promega).
(§2) Western blots were performed according to standard procedures. Briefly, protein lysates were prepared using RIPA buffer with fresh protease inhibitors. Lysates were separated on SDS polyacrylamide gels. Proteins were transferred on nitrocellulose membrane (0.45 micron) (PerkinElmer). Membranes were blocked for 1 h at room temperature in 5% nonfat dry milk and incubated overnight at 4°C with antibodies against EZH2 (4905S Cell signaling), H3K27me3 (07-449 Millipore), PCNA (2586 Cell signaling), ACTIN (I-19 sc-1616; Santa Cruz Biotechnology), GAPDH (ab9484, Abcam), cleaved CSP-3 (D-175 9661S; Cell Signaling) and H3 (ab1971, Abcam). HRP-conjugated secondary antibodies (Santa Cruz Biotechnology) were used in combination with enhanced chemiluminescence (ECL Amersham).

[2] = system: hMB-SLCs; test: Self-renewal, clonogenic assay, hMB-SLCs; assay type: cell-based, human; conditions: 5 μM
Description: (§3) For self-renewal assessment, clonogenic assay was performed as previously described. Briefly: oncospheres were disaggregated with non-enzymatic cell dissociation buffer (Sigma) and cells were plated at clonal density (1-2 cells/mm^2) into 96-well plates and cultured for an appropriate number of days (7-15) until oncospheres were countable.

[3] = system: hMB-SLCs; test: Western Blot of H3K27me3, PCNA, cleaved caspase 3 in hMB-SLCs; assay type: cell-based, human; conditions: 5 μM, 48 h
Description: as §1, §2

[4] = system: DAOY-SLCs; test: Cell viability, MTS assay, DAOY-SLCs; assay type: cell-based; conditions: 5 μM, after 72 h
Description: as §1

[5] = system: DAOY-SLCs; test: Western Blot of H3K27me3 and PCNA in DAOY-SLCs; assay type: cell-based; conditions: 5 μM, 48 h
Description: as §1, §2

[6] = system: DAOY cells; test: Western Blot of H3K27me3 and PCNA in DAOY cells; assay type: cell-based; conditions: 5 μM, 48 h
Description: as §1, §2

[7] = PAMPA-BBB (porcine brain lipid extract artificial membrane); assay type: in vitro ADME; conditions: for Papp at 24 h: Pe in cm/s, pH 7.4, 24 h, room temperature, triplicate, read-out: Log Pe (converted)
Description: Donor solution (500 μM or 250 μM) was prepared by diluting 10 or 5 mM DMSO compound stock solution using phosphate buffer (pH 7.4, 0.01 M). Filter membrane was coated with 5 μl of BBB-specific lipid solution prepared dissolving 16 mg of PBL (Avanti Lipids Polar, 141101P) in 600 μl of n-dodecane. Donor solution (150 μl) was added to each well of the filter plate. To each well of the acceptor plate 300 μl of solution (5% DMSO in phosphate buffer) were added. Each compound was tested in triplicate. The sandwich was incubated for 24 h at room temperature under gentle shaking. After the incubation time, the sandwich plates were separated and 250 μl of the acceptor plate were transferred to a UV quartz microtiter plate and measured by UV spectroscopy, using a Multiskan GO microplate spectrophotometer (Thermo Scientific) at 250−500 nm at step of 5 nm. Reference solutions (250 μl) were prepared diluting the sample stock solutions to the same concentration as that with no membrane barrier. The BBB permeability value Log Pe is determined applying the equation:
log Pe= log{C⋅(−ln(1−[drug]acceptor/[drug]equilibrium))},
where C=(VD⋅VA/(VD+VA)area⋅time)
In this equation, VA is the volume of the acceptor compartment (0.3 cm^3), VD is the donor volume (0.15 cm^3), area is the accessible filter area (0.24 cm^2), and time is the incubation time in seconds.

[8] = system: mMB-SLCs; test: Self-renewal, clonogenic assay, mMB-SLCs; assay type: cell-based, mouse; conditions: 5 μM
Description: as §3

Papp at 24 h [7] [×10⁻⁶ cm/s]	Δ Log Pe ([7]; respect to propranolol)	Compound	H3K27me3 and PCNA protein levels [1]	self-renewal [2]	H3K27me3 and PCNA protein levels [3]	cell viability [4]	H3K27me3 and PCNA levels [5]	H3K27me3 and PCNA levels [6]	self-renewal [8]
3.89	−0.20	CC[C@H](C)n1cc(C)c2c(C(=O)NCc3c(C)cc(C)[nH]c3=O)cc(-c3ccc(N4CCNCC4)nc3)cc21 [GSK2816126, reference compound]	significantly impaired	significantly reduced	significantly impaired	significantly impair	down modulated	impaired only by MC3629	significantly reduced
6.17	–	CC(C)NCC(O)COc1cccc2ccccc12 (stereo not shown) [propranolol]	–	–	–	–	–	–	–
